Where two headings read alike, the source gives them in different places.
Assays:
[1] = target: PI3Kδ (p110δ/p85α) Recombinant Human Protein (Homo sapiens (Human), UniProt O00329); test: PI3Kδ Scintillation Proximity Assay; type: biochemical; conditions: 2 μM ATP, 20 μM PIP2, 3.4 nM PI3Kδ
Description: PI3Kδ Scintillation Proximity Assay
(§1) [γ-^33P]ATP (10 mCi/mL) and Wheat Germ Agglutinin (WGA) YSi SPA Scintillation Beads was purchased from Perkin-Elmer (Waltham, Mass.). Lipid kinase substrate, D-myo-Phosphatidylinositol 4,5-bisphosphate (PtdIns(4,5)P2)D (+)-sn-1,2-di-O-octanoylglyceryl, 3-O-phospho linked (PIP2), CAS 204858-53-7, was purchased from Echelon Biosciences (Salt Lake City, Utah). PI3Kδ (p110δ/p85α) Recombinant Human Protein was purchased from Eurofins (St Charles, Mo.). ATP, MgCl2, DTT, EDTA, MOPS and CHAPS were purchased from SigmaAldrich (St. Louis, Mo.).
The kinase reaction was conducted in polystyrene 384-well Greiner Bio-one white plate from Thermo Fisher Scientific in a final volume of 25 μL. Inhibitors were first diluted serially in DMSO and added to the plate wells before the addition of other reaction components. The final concentration of DMSO in the assay was 2%. The PI3Kδ assay was carried out at room temperature in 20 mM MOPS, pH 6.7, 10 mM MgCl2, 5 mM DTT and CHAPS 0.03%. Reactions were initiated by the addition of ATP, the final reaction mixture consisted of 20 μM PIP2, 2 μM ATP, 0.5 μCi [γ-^33P] ATP, 3.4 nM PI3Kδ. Reactions were incubated for 120 min and terminated by the addition of 40 μL SPA beads suspended in quench buffer: 163 mM potassium phosphate pH 7.8, 20% glycerol, 25 mM EDTA. The final concentration of SPA beads is 1.0 mg/mL. After the plate sealing, plates were shaken overnight at room temperature and centrifuged at 1500 rpm for 10 min, the radioactivity of the product was determined by scintillation counting on Topcount (PerkinElmer). IC50 determination was performed by fitting the curve of percent of the solvent control activity versus the log of the inhibitor concentration using the GraphPad Prism 6.0 software.

[2] = test system: Phosphorylated Ribosomal Protein S6 (RPS6) in THP-1 cells (PI3Kγ); test: THP-1 RPS6 ELISA Assay; type: cell-based, Human; conditions: 10 nM MCP-1 for 15 minutes, Phospho-RPS6 ELISA, read-out: PI3Kγ_THP1_RPS6_ELISA IC50
Experimental: To measure the Phosphorylated Ribosomal Protein S6 (RPS6) in cell lysates, THP-1 cells (Human Acute Monocytic Leukemia) are purchased from ATCC (Manassas, Va.) and maintained in RPMI with 10% FBS (Gibco/Life Technologies, Carlsbad, Calif.). For the assay, THP-1 cells are serum starved overnight in RPMI, then plated in RPMI (2×10^5 cells/well in 90 μL) into 96-well flat-bottom tissue culture treated plates (Corning, Corning, N.Y.), in the presence or absence of a concentration range of test compounds. Covered plates are incubated for 2 hours at 37° C., 5% CO2 then treated with or without 10 nM MCP-1(MYBioSource, San Diego, Calif.) for 15 minutes at 37° C., 5% CO2. Plates are centrifuged at 1600 RPM and supernatants are removed. Cells are lysed in Lysis Buffer (Cell Signaling, Danvers, Mass.) with Protease Inhibitor (Calbiochem/EMD, Germany), PMSF (Sigma, St Louis Mo.), HALTS (Thermo Fisher, Rockford, Ill.) for 30 min on wet ice. Cell lysates are frozen at −80° C. before testing. The lysates are tested in the Human/Mouse/Rat Phospho-RPS6 ELISA (R&D Systems, Inc. Minn, Minn.). The plate is measured using a microplate reader (SpectraMax M5—Molecular Devices, LLC Sunnyvale, Calif.) set to 450 nm with a wavelength correction of 540. IC50 determination is performed by fitting the curve of inhibitor percent inhibition versus the log of the inhibitor concentration using the GraphPad Prism 5.0 software.

[3] = target: PI3Kγ (p110γ) Recombinant Human Protein (Homo sapiens (Human), UniProt P48736); test: PI3K-γ Scintillation Proximity Assay; type: biochemical; conditions: 2 μM ATP, 20 μM PIP2, 13 nM PI3Kγ
PI3Kγ (p110γ) Recombinant Human Protein, sequence (P48736 whole entry): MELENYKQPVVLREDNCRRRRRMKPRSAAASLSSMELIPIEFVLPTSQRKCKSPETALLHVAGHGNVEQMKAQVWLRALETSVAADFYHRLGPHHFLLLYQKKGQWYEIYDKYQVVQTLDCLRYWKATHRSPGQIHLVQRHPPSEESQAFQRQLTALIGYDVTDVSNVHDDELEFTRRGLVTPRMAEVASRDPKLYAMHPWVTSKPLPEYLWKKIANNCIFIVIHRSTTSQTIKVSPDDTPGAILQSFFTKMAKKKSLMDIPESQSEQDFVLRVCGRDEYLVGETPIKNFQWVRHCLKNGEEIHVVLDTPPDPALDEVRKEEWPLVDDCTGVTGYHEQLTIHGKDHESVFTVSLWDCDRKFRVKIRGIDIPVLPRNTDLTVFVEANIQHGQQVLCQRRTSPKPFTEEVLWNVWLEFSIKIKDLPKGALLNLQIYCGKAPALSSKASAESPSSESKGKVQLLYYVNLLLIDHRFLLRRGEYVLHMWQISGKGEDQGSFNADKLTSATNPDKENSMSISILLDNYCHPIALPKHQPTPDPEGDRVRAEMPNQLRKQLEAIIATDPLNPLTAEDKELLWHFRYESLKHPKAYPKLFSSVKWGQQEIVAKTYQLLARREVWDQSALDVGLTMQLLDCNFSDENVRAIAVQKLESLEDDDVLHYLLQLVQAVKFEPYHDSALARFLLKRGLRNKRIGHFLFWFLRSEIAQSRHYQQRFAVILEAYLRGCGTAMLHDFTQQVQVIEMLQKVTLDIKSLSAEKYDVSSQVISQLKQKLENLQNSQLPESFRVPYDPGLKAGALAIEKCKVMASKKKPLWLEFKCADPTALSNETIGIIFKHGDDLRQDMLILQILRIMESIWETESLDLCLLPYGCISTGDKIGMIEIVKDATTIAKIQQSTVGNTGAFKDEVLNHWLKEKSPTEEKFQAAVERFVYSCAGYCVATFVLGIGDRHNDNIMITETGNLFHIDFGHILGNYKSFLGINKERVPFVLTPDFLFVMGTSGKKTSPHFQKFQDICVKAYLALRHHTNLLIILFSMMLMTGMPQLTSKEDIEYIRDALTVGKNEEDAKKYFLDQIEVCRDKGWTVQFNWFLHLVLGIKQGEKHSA
Description: PI3K-γ Scintillation Proximity Assay
as §1, with “[γ-^33]ATP” for “[γ-^33P]ATP”, “PI3Kγ (p110γ)” for “PI3Kδ (p110δ/p85α)”, “Life technology (Grand Island, N.Y.).” for “Eurofins (St Charles, Mo.).”
The kinase reaction was conducted in polystyrene 384-well Greiner Bio-one white plate from Thermo Fisher Scientific in a final volume of 25 μL. Inhibitors were first diluted serially in DMSO and added to the plate wells before the addition of other reaction components. The final concentration of DMSO in the assay was 2%. The PI3Kγ assay was carried out at room temperature in 20 mM MOPS, pH 6.7, 10 mM MgCl2, 5 mM DTT and CHAPS 0.03%. Reactions were initiated by the addition of ATP, the final reaction mixture consisted of 20 μM PIP2, 2 μM ATP, 0.5 μCi [γ-^33P] ATP, 13 nM PI3Kγ. […] After the plate sealing, plates were shaken overnight at room temperature and centrifuged at 1500 rpm for 10 min, the radioactivity of the product was determined by scintillation counting on Topcount (Perkin-Elmer). […]

PI3Kδ (p110δ/p85α) Recombinant Human Protein, sequence (O00329 whole entry): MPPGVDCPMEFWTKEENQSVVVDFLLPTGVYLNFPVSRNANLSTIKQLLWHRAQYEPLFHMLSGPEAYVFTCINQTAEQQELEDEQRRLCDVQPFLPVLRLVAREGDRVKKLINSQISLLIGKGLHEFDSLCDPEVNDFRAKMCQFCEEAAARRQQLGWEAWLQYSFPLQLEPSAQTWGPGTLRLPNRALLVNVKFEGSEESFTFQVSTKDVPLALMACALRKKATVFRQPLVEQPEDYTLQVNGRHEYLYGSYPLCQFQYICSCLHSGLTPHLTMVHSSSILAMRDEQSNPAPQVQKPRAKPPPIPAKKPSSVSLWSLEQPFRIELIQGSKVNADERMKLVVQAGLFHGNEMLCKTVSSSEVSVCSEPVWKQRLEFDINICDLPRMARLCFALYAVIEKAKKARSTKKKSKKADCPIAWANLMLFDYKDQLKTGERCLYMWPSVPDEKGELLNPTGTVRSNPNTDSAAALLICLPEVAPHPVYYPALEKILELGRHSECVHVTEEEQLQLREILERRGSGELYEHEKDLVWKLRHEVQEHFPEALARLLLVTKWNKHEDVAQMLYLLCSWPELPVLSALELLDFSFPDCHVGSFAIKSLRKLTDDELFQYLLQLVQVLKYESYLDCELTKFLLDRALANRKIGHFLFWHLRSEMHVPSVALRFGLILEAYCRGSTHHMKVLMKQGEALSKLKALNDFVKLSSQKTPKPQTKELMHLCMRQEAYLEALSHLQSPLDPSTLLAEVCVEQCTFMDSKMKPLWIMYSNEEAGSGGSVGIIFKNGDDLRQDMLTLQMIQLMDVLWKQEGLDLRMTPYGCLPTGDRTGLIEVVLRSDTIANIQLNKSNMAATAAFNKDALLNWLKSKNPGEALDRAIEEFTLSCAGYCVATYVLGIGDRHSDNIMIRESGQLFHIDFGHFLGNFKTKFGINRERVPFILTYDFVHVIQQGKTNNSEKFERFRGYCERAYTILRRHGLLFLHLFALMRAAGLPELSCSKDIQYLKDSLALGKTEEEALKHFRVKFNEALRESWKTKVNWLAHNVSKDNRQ
PI3Kδ (p110δ/p85α) Recombinant Human Protein, sequence (P27986 whole entry partner): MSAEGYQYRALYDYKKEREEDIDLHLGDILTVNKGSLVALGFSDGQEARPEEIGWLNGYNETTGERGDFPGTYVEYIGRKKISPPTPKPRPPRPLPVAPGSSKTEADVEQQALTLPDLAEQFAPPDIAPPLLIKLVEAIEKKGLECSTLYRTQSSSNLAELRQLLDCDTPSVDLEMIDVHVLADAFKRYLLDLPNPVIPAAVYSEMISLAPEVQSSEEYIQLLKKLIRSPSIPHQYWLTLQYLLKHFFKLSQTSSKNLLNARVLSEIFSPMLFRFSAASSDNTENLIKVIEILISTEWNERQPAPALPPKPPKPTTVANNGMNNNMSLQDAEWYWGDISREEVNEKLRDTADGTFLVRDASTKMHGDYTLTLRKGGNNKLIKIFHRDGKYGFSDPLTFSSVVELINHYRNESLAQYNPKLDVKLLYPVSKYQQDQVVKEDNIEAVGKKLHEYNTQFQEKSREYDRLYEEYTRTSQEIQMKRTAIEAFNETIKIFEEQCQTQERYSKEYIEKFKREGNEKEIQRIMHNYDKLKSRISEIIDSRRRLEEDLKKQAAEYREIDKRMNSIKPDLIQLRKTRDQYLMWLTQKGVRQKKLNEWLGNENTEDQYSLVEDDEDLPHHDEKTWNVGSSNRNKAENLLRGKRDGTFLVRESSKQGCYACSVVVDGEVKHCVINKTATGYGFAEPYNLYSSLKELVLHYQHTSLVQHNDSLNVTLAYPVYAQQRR

Row | SMILES | IC50 [1] [nM] | IC50 [2] [nM] | IC50 ([2]; Homo sapiens, THP-1, 0.25 h) [nM] | IC50 [3] [nM]
1 | Cc1ccc(C(C)(O)C(F)(F)F)cc1-c1cnc2c(N)nc(C(=O)NCC(C)(C)O)cn12 (single isomer, unassigned) [Example 6, 8-Amino-N-(2-hydroxy-2-methylpropyl)-3-(2-methyl-5-(1,1,1-trifluoro-2-hydroxypropan-2-yl)phenyl)imidazo[1,2-a]pyrazine-6-carboxamide] | < 500 | < 500 |  | 
2 | [2H]C([2H])([2H])c1ccc(C(C)(O)C(F)(F)F)cc1-c1cnc2c(N)nc(C(=O)NCC(C)(C)O)cn12 (single isomer, unassigned) [Example 9, 8-Amino-N-(2-hydroxy-2-methylpropyl)-3-(2-(methyl-d3)-5-(1,1,1-trifluoro-2-hydroxypropan-2-yl)phenyl)imidazo[1,2-a]pyrazine-6-carboxamide] |  |  | < 500 | 
3 | Cc1ccc(C(O)(C(N)=O)C(F)(F)F)cc1-c1cnc2c(N)nc(C(F)(F)F)cn12 (single isomer, unassigned) [Example 1, 2-(3-(8-Amino-6-(trifluoromethyl)imidazo[1,2-a]pyrazin-3-yl)-4-methylphenyl)-3,3,3-trifluoro-2-hydroxypropanamide] | < 100 |  |  | < 100
4 | Cc1ccc(C(C)(O)C(F)(F)F)cc1-c1cnc2c(N)nc(C(=O)NCC(C)(C)O)cn12 (single isomer, unassigned) [Example 5, 8-Amino-N-(2-hydroxy-2-methylpropyl)-3-(2-methyl-5-(1,1,1-trifluoro-2-hydroxypropan-2-yl)phenyl)imidazo[1,2-a]pyrazine-6-carboxamide] | < 500 |  | > 1000 | 

— patent publication US11186580B2, “Crystalline forms of a phosphoinositide 3-kinase (PI3K) inhibitor” (Incyte Corporation, priority 2018, dated 2021)
